Among the data in article PMC6272887, “Discovery of Potent c-MET Inhibitors with New Scaffold Having Different Quinazoline, Pyridine and Tetrahydro-Pyridothienopyrimidine Headgroups” (Molecules, 2016) are IC50 and melting point values, retold here.

Series [1] has as its system Hep-G2 (human liver cancer). The series can be described thus: Cell proliferative assay (MTT), Hep-G2. The note with it: read-out: Proliferative Inhibition (IC50, µM) Hep-G2. Type of series: cell-based. As for the experimental part:
(§1) The anti-proliferative activities of synthesized compounds against HeLa, Hep-G2 and MCF-7 cells were evaluated by MTT assay. HeLa cells were grown to log phase in RPMI 1640 medium supplemented with 10% fetal bovine serum. Hep-G2 and MCF-7 cells were grown to log phase in DMEM medium supplemented with 10% fetal bovine serum. After diluting to […] with the complete medium, 100 µL of the obtained cell suspension was added to each well of 96-well culture plates. The subsequent incubation was permitted at 37 °C, 5% CO2 atmosphere for 48 h before the anti-proliferative assessments. Tested samples at pre-set concentrations were added to 6 wells. Before the anti-proliferative assessments, 20 µL of PBS containing 2.5 mg∙mL^−1 of MTT was added to each well. Four h later, 100 µL extraction solution (DMSO) was added to each well and the optical density was measured at a wavelength of 570 nm on an ELISA microplate reader.

Series [2] addresses T1, c-MET (Homo sapiens, UniProt P08581).
T1 construct: purchased Cell Signaling Technology, Inc
The series can be described thus: In vitro kinase assay (HTScan MET Kinase Assay Kit, colorimetric ELISA). In kind it is biochemical. The settings on record: ATP 10 µM; three independent determinations; read-out: Enzymatic Inhibition (IC50, µM) c-MET. As for the experimental part:
In vitro kinase inhibitory ability was determined using HTScan MET Kinase Assay Kit, HTScan VEGF Receptor 2 Kinase Assay Kit, HTScan c-Kit Kinase Assay Kit, HTScan PDGF Receptor β Kinase Assay Kit and HTScan EGFR Kinase Assay Kit(purchased from Cell Signaling Technology, Inc. Danvers, MA, USA) by colorimetric ELISA assay according to the manufacturer’s instructions. Briefly, reaction cocktail containing recombinant human MET kinase or other kinases were incubated with various concentrations of tested compounds or DMSO (0.1%) for 5 min at room temperature, and then ATP/substrate peptide cocktail was added to the pre-incubated reaction cocktail. After incubation at room temperature for 30 min, the reaction was stopped and transferred to a 96-wellstreptavidin-coated plate, and incubated for 1 h at room temperature. Primary antibody (phosphorylated tyrosine monoclonal antibody (pTyr-100), 1:1000 in PBS/T with 1% bovine serum albumin (BSA)) was added into per well until the wells were washed thrice with PBS/T. After incubated at room temperature for 1 h, phosphorylation of the substrate was monitored with HRP-labeled anti-mouse IgG antibody (1:500 in PBS/T with 1% BSA), followed by a chromogenic reaction. Finally, the kinase assay was detected at 450 nm with microplate reader. The reaction processed with only DMSO (0.1%) served as a vehicle control. […] The kinase assay was performed thrice independently.
(In general: In an ELISA, binding on a coated surface is turned into a signal by an enzyme label.)

Series [3] concerns HeLa (human cervical carcinoma). Nature of the series: Cell proliferative assay (MTT), HeLa. In kind it is cell-based. The note with it: HeLa cells, read-out: Proliferative Inhibition (IC50, µM) HeLa. The procedure:
as §1

Series [4] relates to MCF-7 (human breast cancer). Nature of the series: Cell proliferative assay (MTT), MCF-7. In kind it is cell-based. The settings on record: MCF-7 cells, read-out: Proliferative Inhibition (IC50, µM) MCF-7. The procedure: as §1
Where [5] appears, read: Homo sapiens, HepG2, Hep-G2 cells.

Where two headings read alike, the source gives them in different places.

T1 sequence (P08581 25-1390): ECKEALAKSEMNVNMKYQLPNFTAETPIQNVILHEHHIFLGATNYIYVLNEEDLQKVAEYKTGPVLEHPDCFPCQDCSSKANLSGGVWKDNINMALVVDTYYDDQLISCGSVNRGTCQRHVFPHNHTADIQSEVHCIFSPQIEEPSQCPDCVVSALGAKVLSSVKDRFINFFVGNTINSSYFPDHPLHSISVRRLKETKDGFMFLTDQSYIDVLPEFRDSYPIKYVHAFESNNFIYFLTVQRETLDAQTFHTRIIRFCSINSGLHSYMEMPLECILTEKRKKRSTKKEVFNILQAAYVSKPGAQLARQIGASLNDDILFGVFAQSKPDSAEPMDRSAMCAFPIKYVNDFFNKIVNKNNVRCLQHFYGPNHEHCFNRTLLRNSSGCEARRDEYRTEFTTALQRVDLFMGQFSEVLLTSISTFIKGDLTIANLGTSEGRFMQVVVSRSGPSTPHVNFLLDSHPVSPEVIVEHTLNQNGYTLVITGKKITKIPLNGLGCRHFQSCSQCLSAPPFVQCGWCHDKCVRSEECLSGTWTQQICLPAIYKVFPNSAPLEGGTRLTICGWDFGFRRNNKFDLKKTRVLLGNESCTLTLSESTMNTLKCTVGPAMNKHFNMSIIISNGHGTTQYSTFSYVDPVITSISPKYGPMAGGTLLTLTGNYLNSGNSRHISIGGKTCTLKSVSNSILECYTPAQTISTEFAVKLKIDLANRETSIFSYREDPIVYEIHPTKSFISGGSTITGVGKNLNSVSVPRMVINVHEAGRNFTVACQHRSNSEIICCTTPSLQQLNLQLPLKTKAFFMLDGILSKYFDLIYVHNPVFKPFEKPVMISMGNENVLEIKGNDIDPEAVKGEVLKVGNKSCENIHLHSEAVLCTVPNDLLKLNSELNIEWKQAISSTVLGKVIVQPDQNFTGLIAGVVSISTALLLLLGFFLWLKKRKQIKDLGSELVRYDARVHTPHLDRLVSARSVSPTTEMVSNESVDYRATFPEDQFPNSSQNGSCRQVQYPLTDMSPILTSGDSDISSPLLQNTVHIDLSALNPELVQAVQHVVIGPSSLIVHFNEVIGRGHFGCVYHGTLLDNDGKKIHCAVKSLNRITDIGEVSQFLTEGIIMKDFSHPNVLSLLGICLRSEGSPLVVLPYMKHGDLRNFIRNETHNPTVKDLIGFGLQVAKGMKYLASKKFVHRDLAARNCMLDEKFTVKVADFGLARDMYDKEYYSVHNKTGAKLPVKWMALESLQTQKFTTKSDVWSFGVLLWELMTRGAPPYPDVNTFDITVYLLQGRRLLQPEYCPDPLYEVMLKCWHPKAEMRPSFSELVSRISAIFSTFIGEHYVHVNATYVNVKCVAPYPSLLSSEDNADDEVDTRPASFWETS

Usually IC50 stands for the midpoint of a concentration-inhibition curve. For orientation: melting point means the temperature, or range, at which the solid turns liquid. On to `COc1cc2ncnc(Oc3cccc(C(=O)Nc4cc(C(C)(C)C)nn4-c4ccccc4)c3)c2cc1OC` [Compound 9a, N-(3-(tert-butyl)-1-phenyl-1H-pyrazol-5-yl)-3-((6,7-dimethoxyquinazolin-4-yl)oxy)benzamide], for which the melting point was in the range of 217 to 219 °C. The IC50 in series [1] (setting [5]) was 38.5 ± 1.3 µM. Moreover, the IC50 in series [2] was found to be 8.4 ± 0.6 µM. For the same compound, the IC50 in series [3] (Homo sapiens, HeLa) is 28.7 ± 1.1 µM. In addition, in series [4] (Homo sapiens, MCF7, MTT assay), the IC50 amounted to 46.1 ± 0.8 µM.
`CNC(=O)c1cc(Oc2cccc(C(=O)Nc3cc(C(C)(C)C)nn3-c3ccccc3)c2)ccn1` [Compound 9b]: the half-maximal inhibitory concentration (IC50) in series [1] (setting [5]) was above 100 µM; in series [2] it was above 10 µM; in series [3] (Homo sapiens, HeLa), above 100 µM; in series [4] (Homo sapiens, MCF7, MTT assay), 59.7 ± 1.3 µM.
On to `CC(C)(C)OC(=O)N1CCc2c(sc3ncnc(Oc4cccc(C(=O)Nc5cc(C(C)(C)C)nn5-c5ccccc5)c4)c23)C1` [Compound 9c, tert-butyl 4-{3-((3-(tert-butyl)-1-phenyl-1H-pyrazol-5-yl)carbamoyl)phenoxy}-5,6-dihydropyrido(4’,3’:4,5)thieno(2,3-d)pyrimidine-7(8H)-carboxylate], for which the IC50 in series [1] (setting [5]) is above 100 µM; in series [2], above 10 µM; in series [3] (Homo sapiens, HeLa), above 100 µM; in series [4] (Homo sapiens, MCF7, MTT assay), 66.7 ± 1.5 µM.
Compound `COc1ccc(NC(=O)c2cccc(Oc3ncnc4cc(OC)c(OC)cc34)c2)cc1OC` [Compound 11a, N-(3,4-dimethoxyphenyl)-3-((6,7-dimethoxyquinazolin-4-yl)oxy)benzamide] showed a melting point of 220 to 222 °C. Moreover, the IC50 in series [1] (setting [5]) is above 100 µM. Further, the IC50 in series [2] turned out to be 0.52 ± 0.05 µM. For the same compound, in series [3] (Homo sapiens, HeLa), the IC50 was 14.1 ± 0.16 µM. Also, in series [4] (Homo sapiens, MCF7, MTT assay), the IC50 stood at 3.4 ± 0.21 µM.
For `COc1cc2ncnc(Oc3cccc(C(=O)Nc4ccc(Cl)cc4)c3)c2cc1OC` [Compound 11b, N-(4-chlorophenyl)-3-((6,7-dimethoxyquinazolin-4-yl)oxy)benzamide] the same measures were 203 to 205 °C, 9.2 ± 0.17 µM, 0.12 ± 0.03 µM, 1.8 ± 0.06 µM and 7.8 ± 0.14 µM.
For `COc1cc2ncnc(Oc3cccc(C(=O)Nc4ccc(F)cc4)c3)c2cc1OC` [Compound 11c, 3-((6,7-dimethoxyquinazolin-4-yl)oxy)-N-(4-fluorophenyl)benzamide] the same measures were 178 to 180 °C, 10.1 ± 0.2 µM, 0.08 ± 0.04 µM, 0.9 ± 0.12 µM and 5.2 ± 0.36 µM.
As for `CNC(=O)c1cc(Oc2cccc(C(=O)Nc3ccc(OC)c(OC)c3)c2)ccn1` [Compound 11d, 4-{3-((3,4-dimethoxyphenyl)carbamoyl)phenoxy}-N-methylpicolinamide], the IC50 in series [1] (setting [5]) is above 100 µM; in series [2], above 10 µM; in series [3] (Homo sapiens, HeLa) it was above 100 µM; in series [4] (Homo sapiens, MCF7, MTT assay), 71.2 ± 0.34 µM.
For `CNC(=O)c1cc(Oc2cccc(C(=O)Nc3ccc(Cl)cc3)c2)ccn1` [Compound 11e, 4-{3-((4-chlorophenyl)carbamoyl)phenoxy}-N-methylpicolinamide], the IC50 is above 100 µM in series [1] (setting [5]); 7.4 ± 0.07 µM in series [2]; 26.4 ± 0.2 µM in series [3] (Homo sapiens, HeLa); 34.5 ± 0.36 µM in series [4] (Homo sapiens, MCF7, MTT assay).
For the compound `CNC(=O)c1cc(Oc2cccc(C(=O)Nc3ccc(F)cc3)c2)ccn1` [Compound 11f, 4-{3-((4-fluorophenyl)carbamoyl)phenoxy}-N-methylpicolinamide], the IC50 in series [1] (setting [5]) is above 100 µM; in series [2], 5.3 ± 0.05 µM; in series [3] (Homo sapiens, HeLa) it was 27.8 ± 0.34 µM; in series [4] (Homo sapiens, MCF7, MTT assay), 42.1 ± 0.27 µM.
As for `COc1ccc(NC(=O)c2cccc(Oc3ncnc4sc5c(c34)CCN(C(=O)OC(C)(C)C)C5)c2)cc1OC` [Compound 11g, tert-butyl 4-{3-((3,4-dimethoxyphenyl)carbamoyl)phenoxy}-5,6-dihydropyrido(4’,3’:4,5)thieno(2,3-d)pyrimidine-7(8H)-carboxylate], the melting point fell in the range of 103 to 105 °C. Besides, the IC50 in series [1] (setting [5]) is above 100 µM. In addition, the IC50 in series [2] is 1.4 ± 0.1 µM. For the same compound, in series [3] (Homo sapiens, HeLa), the IC50 was determined as 4.4 ± 0.26 µM. In series [4] (Homo sapiens, MCF7, MTT assay), the IC50 came to 17.3 ± 0.38 µM.
Take `CC(C)(C)OC(=O)N1CCc2c(sc3ncnc(Oc4cccc(C(=O)Nc5ccc(Cl)cc5)c4)c23)C1` [Compound 11h, tert-butyl 4-{3-((4-chlorophenyl)carbamoyl)phenoxy}-5,6-dihydropyrido(4’,3’:4,5)thieno(2,3-d)pyrimidine-7(8H)-carboxylate]: the IC50 in series [1] (setting [5]) amounted to 61.9 ± 0.23 µM; in series [2], 0.25 ± 0.08 µM; in series [3] (Homo sapiens, HeLa), 10.7 ± 0.18 µM; in series [4] (Homo sapiens, MCF7, MTT assay), 22.9 ± 0.22 µM.
For `CC(C)(C)OC(=O)N1CCc2c(sc3ncnc(Oc4cccc(C(=O)Nc5ccc(F)cc5)c4)c23)C1` [Compound 11i, tert-butyl 4-{3-((4-fluorophenyl)carbamoyl)phenoxy}-5,6-dihydropyrido(4’,3’:4,5)thieno(2,3-d)pyrimidine-7(8H)-carboxylate], the IC50 was 23.2 ± 0.36 µM in series [1] (setting [5]); 0.05 ± 0.02 µM in series [2]; 1.5 ± 0.11 µM in series [3] (Homo sapiens, HeLa); 1.1 ± 0.31 µM in series [4] (Homo sapiens, MCF7, MTT assay).
In turn, `COc1cc2ncnc(Oc3ccc(NC(=O)C(C)(C)C(=O)Nc4ccc(F)cc4)cc3F)c2cc1OC` [Compound 13a, N^1-{4-((6,7-dimethoxyquinazolin-4-yl)oxy)-3-fluorophenyl}-N^3-(4-fluorophenyl)-2,2-dimethylmalonamide] displayed a melting point of 210 to 212 °C. In addition, the IC50 in series [1] (setting [5]) was above 100 µM. Also, in series [2], the IC50 worked out at 7.1 ± 0.18 µM. In series [3] (Homo sapiens, HeLa), the IC50 is above 100 µM. For the same compound, in series [4] (Homo sapiens, MCF7, MTT assay), the IC50 came to 71.8 ± 0.31 µM.
With `COc1cc2ncnc(Oc3ccc(NC(=O)C4(C(=O)Nc5ccc(F)cc5)CCC4)cc3F)c2cc1OC` [Compound 13c, N-{4-((6,7-dimethoxyquinazolin-4-yl)oxy)-3-fluorophenyl}-N-(4-fluorophenyl)cyclobutane-1,1-dicarboxamide], the melting point fell in the range of 250 to 252 °C. Besides, the IC50 in series [1] (setting [5]) worked out at 49.1 ± 0.3 µM. Moreover, the IC50 in series [2] was 1.2 ± 0.06 µM. Also, the IC50 in series [3] (Homo sapiens, HeLa) came out at 50.1 ± 0.25 µM. Also, the IC50 in series [4] (Homo sapiens, MCF7, MTT assay) is above 100 µM.
Regarding `CNC(=O)c1cc(Oc2ccc(NC(=O)C(C)(C)C(=O)Nc3ccc(F)cc3)cc2)ccn1` [Compound 13d, N^1-(4-fluorophenyl)-2,2-dimethyl-N^3-{4-((2-(methylcarbamoyl)pyridin-4-yl)oxy]phenyl}malonamide], the melting point was in the range of 113 to 115 °C. Besides, the IC50 in series [1] (setting [5]) is above 100 µM. The IC50 in series [2] was above 10 µM. Moreover, in series [3] (Homo sapiens, HeLa), the IC50 is above 100 µM. In addition, the IC50 in series [4] (Homo sapiens, MCF7, MTT assay) is 91.2 ± 0.26 µM.
Compound `CC(C)(C)OC(=O)N1CCc2c(sc3ncnc(Oc4ccc(NC(=O)C(C)(C)C(=O)Nc5ccc(F)cc5)cc4F)c23)C1` [Compound 13g, tert-butyl-4-{2-fluoro-4-(3-((4-fluorophenyl)amino)-2,2-dimethyl-3-oxopropanamido)phenoxy}-5,6-dihydropyrido(4’,3’:4,5)thieno(2,3-d)pyrimidine-7(8H)-carboxylate] registered a melting point of 126 to 128 °C. The IC50 in series [1] (setting [5]) was above 100 µM. Further, the IC50 in series [2] was 9.4 ± 0.6 µM. Moreover, the IC50 in series [3] (Homo sapiens, HeLa) was above 100 µM. Also, the IC50 in series [4] (Homo sapiens, MCF7, MTT assay) was 27.7 ± 0.35 µM.
In the case of “N-(4-fluorophenyl)-N-{4-((2-(methylcarbamoyl)pyridin-4-yl)oxy)phenyl}cyclobutane-1,1-dicarboxamide [Compound 13f]”, the IC50 in series [1] (Hep-G2 cells) was above 100 µM; in series [2], above 10 µM; in series [3] it was 87.8 ± 0.13 µM; in series [4] (MTT assay) it was above 100 µM.
For “N-(4-fluorophenyl)-N-{4-((2-(methylcarbamoyl)pyridin-4-yl)oxy)phenyl}cyclopropane-1,1-dicarboxamide [Compound 13e]”, the IC50 in series [1] (Hep-G2 cells) was above 100 µM; in series [2] it was above 10 µM; in series [3] it was 66.7 ± 0.36 µM; in series [4] (MTT assay) it was above 100 µM.
